The IC50 is the midpoint of a concentration-inhibition curve. A lower IC50 goes with greater potency in that assay.

Values joined by “and” are separate entries in the source; they are usually repeats but may differ in a detail not shown here. Equal values may be shown once.

The test concerns the target Tubulin (Bos taurus, UniProt Q6B856+Q862L2+Q862F3). Nature of the test: In vitro inhibitory activity against bovine brain tubulin assembly at a concentration of 3-3.5 mg/ml. Type of test: functional.

Turning to `CCC1=CC2CN(CCc3c([nH]c4ccccc34)[C@@](C(=O)OC)(c3cc4c(cc3OC)N(C)C3C45CCN4CC=CC(CC)(C45)C(OC(C)=O)[C@]3(O)C(=O)OC)C2)[C@@H]1C#Cc1ccccc1` (stereo not given in full), the concentration for half-maximal inhibition (IC50) is 21 µM and 28 µM.

`CCC1=CC2CN(CCc3c([nH]c4ccccc34)[C@@](C(=O)OC)(c3cc4c(cc3OC)N(C)C3C45CCN4CC=CC(CC)(C45)C(OC(C)=O)[C@]3(O)C(=O)OC)C2)[C@@H]1c1ccccc1` (stereo not given in full): the 50% inhibitory concentration (IC50) was 1.4 µM and 1.6 µM.

Turning to `CCC1CN2CCc3c([nH]c4ccccc34)[C@@](C(=O)OC)(c3cc4c(cc3OC)N(C)C3C45CCN4CC=CC(CC)(C45)C(OC(C)=O)[C@]3(O)C(=O)OC)CC(C2)[C@H]1CC` (stereo not given in full), the IC50 is 1.3 µM and 1.4 µM.

Molecule `CCC1CN2CCc3c([nH]c4ccccc34)[C@@](C(=O)OC)(c3cc4c(cc3OC)N(C)C3C45CCN4CC=CC(CC)(C45)C(OC(C)=O)[C@]3(O)C(=O)OC)CC(C2)[C@H]1C(C)(C)C` (stereo not given in full) showed a concentration for half-maximal inhibition (IC50) of 0.4 µM.

Take `CCC1CN2CCc3c([nH]c4ccccc34)[C@@](C(=O)OC)(c3cc4c(cc3OC)N(C)C3C45CCN4CC=CC(CC)(C45)C(OC(C)=O)[C@]3(O)C(=O)OC)CC(C2)[C@H]1c1ccccc1` (stereo not given in full): the IC50 was 0.5 µM and 0.6 µM.

The record behind these values is ChEMBL document CHEMBL1127954, “A new approach to synthesis of vinblastine analogs. Addition of organozinc reagents to the dihydropyridinium ion generated by fragmentative coupling to catharanthine and vindoline” (Bioorg Med Chem Lett, 1994).
